Experimental data as given in US10800792B2, “Inhibitors of Bruton's tyrosine kinase and method of their use” (JANSSEN PHARMACEUTICA NV, priority 2015, dated 2020).

Target: unphosphorylated-BTK kinase domain (UP-BTK), GST-tagged human BTK (389-659aa) (Homo sapiens (Human), UniProt Q06187)
Test: BTK kinase Lanthascreen binding assay
Details: pIC50 = negative log of the IC50 in molar
Procedure, shortened: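 Measures how well compounds compete with a fluorescence-labelled tracer for binding to BTK in its unphosphorylated state. IC50 values were fitted and expressed as pIC50 (negative logarithm of the molar IC50).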

[1] = Lanthascreen tracer competition, 60 minutes incubation
[2] = unphosphorylated-BTK kinase domain, 50 nM Tracer 236, 60 minutes

unphosphorylated-BTK kinase domain (UP-BTK), GST-tagged human BTK (389-659aa), sequence (Q06187 389-659): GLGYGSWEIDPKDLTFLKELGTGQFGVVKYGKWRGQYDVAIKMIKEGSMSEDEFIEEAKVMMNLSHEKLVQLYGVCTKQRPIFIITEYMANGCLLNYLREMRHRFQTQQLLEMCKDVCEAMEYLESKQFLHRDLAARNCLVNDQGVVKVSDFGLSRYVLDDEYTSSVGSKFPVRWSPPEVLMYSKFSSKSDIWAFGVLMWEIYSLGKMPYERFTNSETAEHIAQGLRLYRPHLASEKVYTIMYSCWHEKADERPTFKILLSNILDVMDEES

Compound	BTK_I_binding pIC50 [1]	BTK_I_binding pIC50 [2]	other results
C=CC(=O)N1CCC[C@@H](NC(=O)c2sc3nccc4c3c2NC(=O)N4c2ccc(Oc3cccc(C)n3)cc2C)C1 [Example 772, (R)—N-(1-Acryloylpiperidin-3-yl)-5-(2-methyl-4-((6-methylpyridin-2-yl)oxy)phenyl)-4-oxo-4,5-dihydro-3H-1-thia-3,5,8-triazaacenaphthylene-2-carboxamide]	7.7		
Cc1cc(Oc2ccccc2)ccc1N1C(=O)Nc2c(C(=O)N[C@@H]3CCCN(C(=O)/C=C/CO)C3)sc3nccc1c23 (single isomer, unassigned) [Example 503, (R,E)-N-(1-(4-Hydroxybut-2-enoyl)piperidin-3-yl)-5-(*S)-(2-methyl-4-phenoxyphenyl)-4-oxo-4,5-dihydro-3H-1-thia-3,5,8-triazaacenaphthylene-2-carboxamide]		7.8	
Cc1cc(OCC(C)C)ncc1N1C(=O)Nc2c(C(=O)N[C@@H]3CCNC3)sc3nccc1c23 (single isomer, unassigned) [Example 798, (R)-5-(*S)-(6-Isobutoxy-4-methylpyridin-3-yl)-4-oxo-N-(pyrrolidin-3-yl)-4,5-dihydro-3H-1-thia-3,5,8-triazaacenaphthylene-2-carboxamide]	6.3		
COc1ccc(N2C(=O)Nc3c(C(=O)N[C@H]4CCCN(C(=O)/C(C#N)=C/C5CC5)C4)sc4nccc2c34)c(C)c1 [Example 946, (S,E)-N-(1-(2-Cyano-3-cyclopropylacryloyl)piperidin-3-yl)-5-(4-methoxy-2-methylphenyl)-4-oxo-4,5-dihydro-3H-1-thia-3,5,8-triazaacenaphthylene-2-carboxamide]			BTK_I_binding pIC50 (unphosphorylated-BTK kinase domain, 60 minutes incubation, 50 nM Tracer 236): 5.4

More lines, main results first:

BTK_I_binding pIC50 [1]	BTK_I_binding pIC50 [2]	Compound	other results
	8.0	Cc1cc(Oc2ccccc2)ccc1N1C(=O)Nc2c(C(=O)N[C@@H]3CCN(C(=O)/C=C/CO)C3)sc3nccc1c23 (single isomer, unassigned) [Example 522, (R,E)-N-(1-(4-Hydroxybut-2-enoyl)pyrrolidin-3-yl)-5-(*S)-(2-methyl-4-phenoxyphenyl)-4-oxo-4,5-dihydro-3H-1-thia-3,5,8-triazaacenaphthylene-2-carboxamide]	
7.5		O=C(N[C@@H]1CCCN(C(=O)/C=C/CO)C1)c1sc2nccc3c2c1NC(=O)N3c1ccc(Oc2ccccc2)cc1 [Example 590, (R,E)-N-(1-(4-Hydroxybut-2-enoyl)piperidin-3-yl)-4-oxo-5-(4-phenoxyphenyl)-4,5-dihydro-3H-1-thia-3,5,8-triazaacenaphthylene-2-carboxamide]	
	7.3	CN(C)CC(=O)N1CC[C@@H](NC(=O)c2sc3nccc4c3c2NC(=O)N4c2ccc(Oc3ccccc3)cc2)C1 [Example 425, (R)—N-(1-(2-(Dimethylamino)acetyl)pyrrolidin-3-yl)-4-oxo-5-(4-phenoxyphenyl)-4,5-dihydro-3H-1-thia-3,5,8-triazaacenaphthylene-2-carboxamide]	
